Measurements taken from US9266904B2, “6-bridged heteroaryldihydropyrimidines for the treatment and prophylaxis of hepatitis B virus infection” (priority 2013, dated 2016).
Like-named read-outs stand apart in the source and are kept apart here.

Assays:
[1] = system: HBV replication in HepG2.2.15 cells; test: Anti-HBV activity in vitro in HepG2.2.15 cells (extracellular HBV DNA by qPCR); assay type: cell-based; details: Hepatitis B virus
How it was run: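 EC50 is derived from qPCR of extracellular viral DNA in culture supernatant after 5-day compound exposure. Cells (HepG2.2.15, stably carrying the HBV genome) were plated and incubated overnight at 37 °C before half-log dilution series were added at 0.5% final DMSO.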

[2] = Cytotoxicity (CCK-8 cell viability) and selectivity index; assay type: cell-based, human; details: human, HepDE19 cells; cytotoxicity, concentration resulting in death of 50% of host cells
Text: (§1) HepG2.2.15 and HepDE19 are stably-transfected cell lines containing the HBV genome. Both cell lines are derived from the hepatoblastoma cell line Hep G2 (American Type Culture Collection, ATCC® HB-8065™) by the published procedures described in references: M A Selles et al. Proc. Natl. Acad. Sci. USA 1987, 84, 1005-1009 and H Guo et al. Journal of Virology 2007, 81, 12472-12484, respectively. Both cell lines were maintained in Dulbecco's modified Eagle's medium (DMEM)-F12 medium supplemented with 10% fetal bovine serum, 100 U/mL penicillin, 100 μg/mL streptomycin, and 0.5 mg/mL of G418.
(§2) In a cell culture model, apparent antiviral activity of a compound can be the result of host cell death after exposure to the compound. To determine whether the anti-HBV effect of a test compound is due to cytotoxicity, HepDE19 cells were seeded into 96-well plates (5×10^3 cells per well) and treated with compounds as described above for EC50 determination. Five days after treatment, cell viability was measured by addition of 20 μL of CCK-8 reagent. Two hours after incubation at 37° C., the absorbance at wavelengths of 450 nm and 630 nm (OD450 and OD630) was recorded by a plate reader. The concentration results in the death of 50% of the host cells (CC50) of each compound was determined (See Table 5).

HepDE19 cells = test: as above; assay type: cell-based, human; details: CC50 value/EC50 value
Text: as §1, §2

[3] = Human microsomal clearance assay; assay type: in vitro ADME; details: human, 1 μM, pH 7.4
How it was run: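 Liver microsomes (0.5 mg/mL protein) were incubated with 1 μM compound at 37 °C, pH 7.4 phosphate, with an NADPH-regenerating system. Samples at 0-30 min were quenched and measured by LC-MS/MS for parent loss. No-NADPH controls were included.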

[4] = HepG2.2.15, Anti-HBV activity in HepG2.2.15 cells, read-out: EC50

With `COC(=O)C1=C(CN2C3COCC2CN(S(C)(=O)=O)C3)NC(c2nccs2)=N[C@H]1c1ccc(F)cc1Cl` [Example 11, (R)-4-(2-Chloro-4-fluoro-phenyl)-6-(7-methanesulfonyl-3-oxa-7,9-diaza-bicyclo[3.3.1]non-9-ylmethyl)-2-thiazol-2-yl-1,4-dihydro-pyrimidine-5-carboxylic acid methyl ester] the EC50 [1, 4] was 6.6 nM, the CC50 at 5 days [2] was over 100000 nM and the “Selectivity index (CC50/EC50)” value (HepDE19 cells) was over 15152. It also gave a CLh [3] of 9.0 mL/min/kg.

For `COC(=O)C1=C(CN2C3COCC2CN(S(N)(=O)=O)C3)NC(c2nccs2)=N[C@H]1c1ccc(F)cc1Cl` [Example 19, (R)-4-(2-Chloro-4-fluoro-phenyl)-6-(7-sulfamoyl-3-oxa-7,9-diaza-bicyclo[3.3.1]non-9-ylmethyl)-2-thiazol-2-yl-1,4-dihydro-pyrimidine-5-carboxylic acid methyl ester], the EC50 [1, 4] was 4 nM, the CC50 at 5 days [2] was 58000 nM and the “Selectivity index (CC50/EC50)” value (HepDE19 cells) was 16571. The CLh [3] was 4.6 mL/min/kg.

With `COC(=O)C1=C(CN2C3COCC2CC(NS(C)(=O)=O)C3)NC(c2nccs2)=N[C@H]1c1ccc(F)cc1Cl` (stereo partly drawn) [Example 36, (R)-4-(2-Chloro-4-fluoro-phenyl)-6-(7-methanesulfonylamino-3-oxa-9-aza-bicyclo[3.3.1]non-9-ylmethyl)-2-thiazol-2-yl-1,4-dihydro-pyrimidine-5-carboxylic acid methyl ester] the EC50 [1, 4] was 3 nM, the CC50 at 5 days [2] was 38000 nM and the “Selectivity index (CC50/EC50)” value (HepDE19 cells) was 11875. It also gave a CLh [3] of 7.8 mL/min/kg.

For `COC(=O)C1=C(CN2[C@@H]3COC[C@H]2C[C@H](NS(C)(=O)=O)C3)NC(c2nccs2)=N[C@H]1c1ccc(F)cc1Cl` [Example 60, Methyl (4R)-4-(2-chloro-4-fluoro-phenyl)-6-[[(1R,5S)-7-exo-(methanesulfonamido)-3-oxa-9-azabicyclo[3.3.1]nonan-9-yl]methyl]-2-thiazol-2-yl-1,4-dihydropyrimidine-5-carboxylate], the EC50 [1, 4] was 1.6 nM, the CC50 at 5 days [2] was 34000 nM and the “Selectivity index (CC50/EC50)” value (HepDE19 cells) was 21169. For the same compound, the CLh [3] was 6.4 mL/min/kg.

With `COC(=O)C1=C(CN2[C@@H]3COC[C@H]2C[C@H](NC(C)=O)C3)NC(c2nccs2)=N[C@H]1c1ccc(F)cc1Cl` [Example 61, Methyl (4R)-6-[[(1S,5R)-7-exo-acetamido-3-oxa-9-azabicyclo[3.3.1]nonan-9-yl]methyl]-4-(2-chloro-4-fluoro-phenyl)-2-thiazol-2-yl-1,4-dihydropyrimidine-5-carboxylate] the EC50 [1, 4] was 4.8 nM, the CC50 at 5 days [2] was 53000 nM and the “Selectivity index (CC50/EC50)” value (HepDE19 cells) was 10942. It also gave a CLh [3] of 6.3 mL/min/kg.

With `CCOC(=O)CC1(NC(=O)C(F)(F)F)CC2COCC(C1)N2CC1=C(C(=O)OC)[C@H](c2ccc(F)cc2Cl)N=C(c2nccs2)N1` (stereo partly drawn) [Example 147, Methyl (4R)-4-(2-chloro-4-fluoro-phenyl)-6-[[7-(2-ethoxy-2-oxo-ethyl)-7-[(2,2,2-trifluoroacetyl)amino]-3-oxa-9-azabicyclo[3.3.1]nonan-9-yl]methyl]-2-thiazol-2-yl-1,4-dihydropyrimidine-5-carboxylate] the EC50 ([1]; HepG2.2.15) was 0.9 nM, the CC50 at 5 days [2] was over 100000 nM and the “Selectivity index (CC50/EC50)” value (HepDE19 cells) was over 111111.

With `COC(=O)C1=C(CN2C3CC(F)(F)C2C[C@H]3C(=O)O)NC(c2nccs2)=N[C@H]1c1ccc(F)cc1Cl` (stereo partly drawn) [Example 152, (5R)-7-[[(4R)-4-(2-chloro-4-fluoro-phenyl)-5-methoxycarbonyl-2-thiazol-2-yl-1,4-dihydropyrimidin-6-yl]methyl]-2,2-difluoro-7-azabicyclo[2.2.1]heptane-5-carboxylic acid] the EC50 [1, 4] was 17.7 nM, the CC50 at 5 days [2] was over 100000 nM and the “Selectivity index (CC50/EC50)” value (HepDE19 cells) was over 5650.
